Assay results reported in ChEMBL document CHEMBL3507680, “University of Dundee, Gates Library screen for HepG2 cell viability”.

Test: Human HepG2 cell viability assay in 384 well format
Assay type: toxicity, cell-based
Set-up: dose 125 nL, time 70.5 hour; cytotoxicity at 70.5 h: concentration not given beside the values
Conditions: HepG2 cells, read-out: Inhibition

| SMILES | cytotoxicity at 70.5 h [%] |
| --- | --- |
| O=C1C[C@H]2[C@@H](CCN2Cc2ccccn2)N1Cc1cccnc1 | -6.81 |
| CN(CC(=O)Nc1cc(C(F)(F)F)c[nH]c1=O)Cc1ccccc1 | -11.2 |
| CCCN1C(=O)[C@@H]2[C@@H](CCN2C(=O)COC)N(Cc2cccs2)C1=O | 11.5 |
| COc1c(CNCCC(=O)Nc2cccc(C)n2)c(C(C)C)nn1C | 14.3 |
| Cc1ccc(N(C)CC(O)COCc2ccccc2)c(C)c1 (stereo not given) | 12.5 |
| Cc1cc(C)n(C2CCCN(C(=O)COCC(F)(F)F)C2)n1 (stereo not given) | -22.5 |
| Cc1ccc2nc(C)cc(C(=O)N[C@H]3COC[C@@H]3N3CCOCC3)c2c1 | -6.73 |
| Cc1cc(C(=O)N2C[C@@H]3COC[C@]3(c3nnc(C)o3)C2)on1 | -11.2 |
| CS(=O)(=O)NC1CCN(C(=O)NCc2cc[nH]n2)CC1 | -8.42 |
| CCc1noc(C2CCCCN2C(=O)c2nnc3ccccc3n2)n1 (stereo not given) | 17.3 |
| COC(=O)NCC(=O)N1CCC(c2nc3cc(F)ccc3[nH]2)CC1 | -2 |
| CN(C)c1cc(C(=O)N2CCN(c3cnccn3)CC2)ccn1 | -13.9 |
| Cc1ccc(CN2CCOCC3(CCN(Cc4cccs4)C3)C2)o1 (stereo not given) | 0.0959 |
| O=C(Nc1nccs1)NC1CCN(Cc2ccccc2)C1 (stereo not given) | -8.23 |
| Cc1csc2c(=O)n3c(nc12)CCN(C(=O)c1ccnn1C)CC3 | -6.6 |
| Cc1nn(CC(C)C)c(N(C)C)c1CNCc1ccc2c(c1)OCO2 | -2.13 |
| Cc1cc(-c2cnc(N3CCCC3)nc2C(C)C)on1 | -7.72 |
| O=C(c1cscn1)N1CCn2cnc(COCC3CC3)c2C1 | -4.79 |
| CC(=O)N[C@@H]1CN(C(=O)c2cc(C)oc2C)C[C@H]1c1ccc(C)o1 | 23.3 |
| CCn1nc2c(cc1=O)CN(CC(=O)N(C)c1nccs1)CC2 | 25.4 |
| Cn1c2c(ccc1=O)CC(NS(C)(=O)=O)CC2 (stereo not given) | 27.8 |
| O=C(NCC1CC1)[C@H]1C[C@H]2OCC[C@H]2N(Cc2ccsc2)C1 | -4.19 |
| O=C1NCCN2CCN(C(=O)NCCc3ccccc3)CC12 (stereo not given) | -9.06 |

| SMILES | cytotoxicity at 70.5 h [%] |
| --- | --- |
| O=C(Nc1cccc(F)c1)C1CCCN1c1nccs1 (stereo not given) | 1.52 |
| CCn1nc(C)c(CN(Cc2ccccn2)Cc2ccccc2Cl)c1C | 10.9 |
| CCN(CCNS(=O)(=O)C1CCOCC1)C(=O)OC(C)(C)C | -5.67 |
| CN(C)c1nc(N)nc(CSCCC(=O)Nc2ccc(F)cc2)n1 | -7.07 |
| CC(C)S(=O)(=O)CCN1CCc2c(ncn2C2CC2)C1 | 3.39 |
| Cn1cnc(S(=O)(=O)NCC2CCN(C(=O)Oc3ccccc3)CC2)c1 | 0.307 |
| COCCN1CCC(NCc2cccc(C)c2)C1 (stereo not given) | -12.6 |
| O=C(C1CC1)N1CCCC1C1CCN(Cc2ccccc2)CC1 (stereo not given) | 1.42 |
| Cn1cc(CN2C[C@@H]3OCCN(CC4CCCC4)[C@@H]3C2)cn1 | -7.97 |
| CN(C)c1cncc(C2CCN(CC(N)=O)CC2)n1 | -0.457 |
| O[C@H]1[C@H](NCCSc2ccccn2)c2ccccc2C12CCNCC2 | 1.07 |
| CN(C)C(=O)[C@H]1C[C@H]2OCC[C@H]2N(CCOc2ccc(Cl)cc2)C1 | -3.17 |
| CC(C)N1CCC(CC(=O)N(C)CC(=O)c2ccc(O)cc2)CC1 | -1.48 |
| CCOc1cc(CN(C)CC(=O)O)ccc1OC(F)F | 6.63 |
| CNC(=O)Cc1noc(-c2cc3c(s2)CCCCCC3)n1 | -7.62 |
| Cc1noc([C@]23COC[C@H]2CN(Cc2cc(C)on2)C3)n1 | 47.3 |
| OCCN1CCC(F)(F)C2(CCN(c3cnccn3)C2)C1 (stereo not given) | -5.87 |
| CCc1cc(CN(C)Cc2nc(-c3sccc3C)oc2C)on1 | -9.39 |
| Cc1cc(C)cc(C2(C(=O)NCC3CCN(CC(F)(F)F)C3)CC2)c1 (stereo not given) | -2.93 |
| Cc1ccoc1C(=O)NC1CCN(Cc2ccccc2C#N)CC1 | -1.98 |
| O=C(c1ccccn1)N1CCC2(CC1)COC(COCC1CC1)C2 (stereo not given) | -8.98 |
| CC(=O)Nc1ccc(Oc2ccc3c(c2)OCO3)nc1 | -12.3 |
| O=S(=O)(Cc1cccc(F)c1)Nc1cc(Cl)ccn1 | 2.91 |

| SMILES | cytotoxicity at 70.5 h [%] |
| --- | --- |
| CN(C)CCN(Cc1ccccc1)C(=O)C1=NNC(=O)CC1 | -6.1 |
| CCCS(=O)(=O)NCCc1ncc(C)s1 | -11.1 |
| OC1(CNc2ccc(Br)cn2)CCOCC1 | -2.5 |
| COc1nc2ccccc2cc1CN1CCCC(CNC(C)=O)C1 (stereo not given) | -4.14 |
| Nc1nnc(SCc2cc(=O)n3c4c(sc3n2)CCCC4)[nH]1 | -3.97 |
| Cc1cc(-c2cc(F)ccc2C(=O)O)nc(C2CCCCN2C(C)C)n1 (stereo not given) | -5.96 |
| CN(C)C(=O)CN1CCO[C@H]2CN(c3ccccn3)C[C@H]21 | -3.6 |
| CC(C)(C)OC(=O)N1CC(CC(=O)NCc2ccnc(C3CC3)c2)C1 | -8.99 |
| O=C(NC1CCCC1)[C@@H]1C[C@@H]2CCN(Cc3ccoc3)C[C@H]2O1 | -10 |
| CCOc1ccc(Cl)c(C(=O)N2CCN(CC(O)CC)CC2)n1 (stereo not given) | -14 |
| CCOCCc1nc(Cc2ccccc2)n[nH]1 | -14.4 |
| Cc1ccc(C(=O)N2CCN(CC(C)O)CC2)cc1S(C)(=O)=O (stereo not given) | -6.11 |
| CN(CCCN1CCOCC1)[C@@H]1c2ccccc2C2(CCNCC2)[C@H]1O | -7.93 |
| COc1ccc(CN(C)C(=O)Cc2c(C)nn(C)c2C)cc1F | 2.24 |
| NC(=O)c1cnc(NC2CCC(c3ccccc3)CC2)c(Cl)c1 (stereo not given) | -2.31 |
| Cc1cnn(CCCNC(=O)NCCC(=O)Nc2ccccc2)c1 | -11.8 |
| O=C(CCc1nc2ccccc2[nH]1)NC1CCOC2(CCOCC2)C1 (stereo not given) | 20.1 |
| O=C(NCC(O)c1ccsc1)c1sccc1OC(F)F (stereo not given) | -13.8 |
| CN(Cc1ccc(F)cc1)S(=O)(=O)N1CCOCC1 | 6.44 |
| Nc1nnnn1NCc1cccc(Cl)c1Cl | 21.9 |
| O=c1c2sccc2ncn1CC(O)CN1CCOCC1 (stereo not given) | -10.3 |
| Cc1ccc(C(=O)N2CCC3(CCCN(c4ccc(C)nn4)C3)C2)cn1 (stereo not given) | -10.8 |
| CCOCC1CCN(C(=O)C(c2c(F)cccc2F)N(C)C)CC1 (stereo not given) | 0.534 |

| SMILES | cytotoxicity at 70.5 h [%] |
| --- | --- |
| CCC[C@@H]1CN(Cc2cc3c(cc2OC)OCCO3)C[C@H]1C(=O)O | -1.36 |
| CCc1nccn1C1CCCN(C(=O)c2cncnc2C)C1 (stereo not given) | 16 |
| Nc1cc(-c2cncnc2C2CCN(C(=O)c3ccccc3)C2)ccn1 (stereo not given) | 2.08 |
| N#CC1(C(=O)N2CCOC(c3ccc(F)cc3)C2)CCCC1 (stereo not given) | -15.9 |
| CC(=O)N(C/C=C/c1ccccc1)CCO | 7.41 |
| Clc1ccc(CN2CCc3c(ncn3C3CC3)C2)c2ncccc12 | -2.64 |
| Cn1cc(-c2nc(CNCCn3cccn3)cs2)cn1 | 12.5 |
| Cc1cc(CNC(=O)Cc2c(C)nc3cc(=O)[nH]n3c2C)no1 | -4.77 |
| CCc1csc(CNCC(=O)Nc2ccc(Cl)c(C)c2)n1 | -6.59 |
| O=C1COC2(CCN(Cc3ccc(F)cc3)CC2)CN1 | 3.53 |
| COc1cccc(CNc2c(C)cnc3c2c(=O)n(C)c(=O)n3C)c1 | 35.6 |
| Cc1ccc(OCC(=O)NC2(C#N)CCSCC2)cc1C | -10.6 |
| COCC1CN(CC2CC2)Cc2nn(C)cc21 (stereo not given) | 13.1 |
| Cc1nnc(NC(=O)CN2CCc3nn(C)c(=O)cc3C2)s1 | 10.8 |
| COCCNc1ccc(CNCc2cnc3nc(C)cc(C)n23)cc1 | -9.55 |
| Cc1nc(C2CCCN(C(=O)C3=NN(C(C)C)C(=O)CC3)C2)no1 (stereo not given) | -9.12 |
| Cc1cccc(OCC2CCCN(C(=O)CN(C)C3CCNCC3)C2)c1 (stereo not given) | 11.3 |
| COCCNC(=O)Cn1cc(NC(=O)c2cccc(Cl)c2Cl)cn1 | -1.6 |
| O=C(c1ccncc1)N1CCCn2nnc(COCCO)c2C1 | -5 |
| COCCOc1cccc(CNCc2c(C)nn(C)c2N(C)C)c1 | -2.1 |
| Cc1cc(C)c(CNC(=O)N2CCC(N3CCCC3)CC2)c(=O)[nH]1 | -7.61 |
| CNC(=O)NCC(=O)N1CCCC1Cc1cccc(F)c1 (stereo not given) | 2.87 |
| CC1CCCN(Cc2c(C3CCOCC3)[nH]c3ncccc23)C1 (stereo not given) | 26.7 |

| SMILES | cytotoxicity at 70.5 h [%] |
| --- | --- |
| O=S(=O)(C1CC1)N1CCC2(CCN(Cc3nccs3)CC2)CC1 | -2.17 |
| Cc1ncc(C(=O)Nc2cncnc2N(C)C)c(Cl)c1Cl | -9.76 |
| CCn1cc(N2Cc3nc(N4CCOCC4)ncc3C2=O)cn1 | 2.67 |
| Cn1ccnc1SCCNC(=O)CC1CCc2ccccc21 (stereo not given) | -10.6 |
| O=C1COc2c(cccc2C(=O)N2CCCCC2Cn2cccn2)N1 (stereo not given) | -4.26 |
| Cc1nn(C)cc1C(=O)N1CCCN(C2Cc3ccccc3C2)CC1 | 14.3 |
| Cc1nc(CNC(=O)Nc2ccc3c(c2)CCCN3C)sc1C | -0.336 |
| Cc1ccc(F)c2c1CCCN2C(=O)c1cn(CC(=O)N(C)C)nn1 | -7.17 |
| Cc1n[nH]c(C)c1NC(=O)CN1CCc2c(nc(C(C)C)n2C)C1 | -16.4 |
| CC(CN1CCCC1=O)NC(=O)Nc1ccccc1Cn1cccn1 (stereo not given) | -5.84 |
| c1ccc(Cc2nnc(CN3CCCCC3Cn3cncn3)o2)cc1 (stereo not given) | 0.659 |
| CCc1nccn1C1CCCN(C(=O)c2cn3cccnc3n2)C1 (stereo not given) | -11.4 |
| CCC(CC)CN1CCC2(CCC(=O)N2OCc2ccccc2F)CC1 | 21.6 |
| CC(C)(C)C(O)CN1CCN(CC(=O)NC2CCOCC2)CC1 (stereo not given) | -7.28 |
| CCN1C(=O)C2(CCOCC2)c2cc(NC(=O)c3cccn3C)ccc21 | -0.784 |
| Cc1ccc(CNc2ccn(CCc3ccncc3)n2)s1 | 2.73 |
| COCCn1ccnc1C1CCCN(c2cc(OC)nc(N)n2)C1 (stereo not given) | 31.1 |
| COc1ccccc1OCC(=O)NCc1ncc(C)c(OC)c1C | 11.5 |
| Cc1ccc2c(c1)N(C(=O)C1CCCOC1)CCC2 (stereo not given) | -4.9 |
| Cc1ncnc2c1CCN(CC(=O)N(C)C)CC2 | -5.19 |
| O=C(NCCCN1CCOCC1)C1CCCN(Cc2ccco2)C1 (stereo not given) | -1.31 |
| CN(C)c1ncccc1C(=O)N1CCCN(c2cccnn2)CC1 | -6.59 |
| CNc1cc2c(nn1)CCN(C(=O)c1cc(F)cc(F)c1)C2 | -10 |
